Activity calls are given as the source filed them. The rule behind the calls is not given here.
Test system: CCRIS mutagenicity, Ames/micronucleus/aberration tests
Experiment: CCRIS mutagenicity studies
Conditions: Test System: AMES SALMONELLA TYPHIMURIUM
[1] = Strain/Indicator: TA97, Metabolic Activation: NONE, Method: STANDARD PLATE
[2] = Strain/Indicator: TA98, Metabolic Activation: RAT, LIVER, S-9, AROCLOR 1254, Method: STANDARD PLATE
[3] = Strain/Indicator: TA100, Metabolic Activation: RAT, LIVER, S-9, AROCLOR 1254, Method: STANDARD PLATE
[4] = Strain/Indicator: TA1535, Metabolic Activation: RAT, LIVER, S-9, AROCLOR 1254, Method: STANDARD PLATE
[5] = Strain/Indicator: TA1538, Metabolic Activation: NONE, Method: STANDARD PLATE

**Q.** For `CCC1NC(=O)c2cc(S(N)(=O)=O)c(Cl)cc2N1` (stereo unspecified), which mutagenic call (Strain/Indicator: TA97, Metabolic Activation: HAMSTER, LIVER, S-9, AROCLOR 1254 (10%), Method: PREINCUBATION) is on record?
**A.** inactive; negative

**Q.** What about the mutagenic call (Strain/Indicator: TA97, Metabolic Activation: HAMSTER, LIVER, S-9, AROCLOR 1254 (30%), Method: PREINCUBATION) of the same molecule?
**A.** inactive; negative

**Q.** What about the mutagenic call (Strain/Indicator: TA97, Metabolic Activation: NONE, Method: PREINCUBATION) of the same molecule?
**A.** inactive; negative

**Q.** And the mutagenic call (Strain/Indicator: TA97, Metabolic Activation: RAT, LIVER, S-9, AROCLOR 1254 (10%), Method: PREINCUBATION)?
**A.** inactive; negative

**Q.** And the mutagenic call (Strain/Indicator: TA97, Metabolic Activation: RAT, LIVER, S-9, AROCLOR 1254 (30%), Method: PREINCUBATION)?
**A.** inactive; negative

**Q.** What about the mutagenic call (Strain/Indicator: TA98, Metabolic Activation: HAMSTER, LIVER, S-9, AROCLOR 1254 (10 OR 30%), Method: PREINCUBATION) of the same molecule?
**A.** inactive; negative

**Q.** What about the mutagenic call (Strain/Indicator: TA98, Metabolic Activation: NONE, Method: PREINCUBATION) of the same molecule?
**A.** inactive; negative

**Q.** And the mutagenic call (Strain/Indicator: TA98, Metabolic Activation: RAT, LIVER, S-9, AROCLOR 1254 (10 OR 30%), Method: PREINCUBATION)?
**A.** inactive; negative

**Q.** What about the mutagenic call (Strain/Indicator: TA100, Metabolic Activation: HAMSTER, LIVER, S-9, AROCLOR 1254 (5 OR 10%), Method: PREINCUBATION) of the same molecule?
**A.** inactive; negative

**Q.** What about the mutagenic call (Strain/Indicator: TA100, Metabolic Activation: HAMSTER, LIVER, S-9, AROCLOR 1254 (30%), Method: PREINCUBATION) of the same molecule?
**A.** inactive; negative

**Q.** And the mutagenic call (Strain/Indicator: TA100, Metabolic Activation: NONE, Method: PREINCUBATION)?
**A.** inactive; negative

**Q.** What about the mutagenic call (Strain/Indicator: TA100, Metabolic Activation: RAT, LIVER, S-9, AROCLOR 1254 (5 OR 10%), Method: PREINCUBATION) of the same molecule?
**A.** inactive; negative

**Q.** What about the mutagenic call (Strain/Indicator: TA100, Metabolic Activation: RAT, LIVER, S-9, AROCLOR 1254 (30%), Method: PREINCUBATION) of the same molecule?
**A.** inactive; negative

**Q.** What about the mutagenic call (Strain/Indicator: TA1535, Metabolic Activation: HAMSTER, LIVER, S-9, AROCLOR 1254 (10 OR 30%), Method: PREINCUBATION) of the same molecule?
**A.** inactive; negative

**Q.** And the mutagenic call (Strain/Indicator: TA1535, Metabolic Activation: NONE, Method: PREINCUBATION)?
**A.** inactive; negative

**Q.** What about the mutagenic call (Strain/Indicator: TA1535, Metabolic Activation: RAT, LIVER, S-9, AROCLOR 1254 (10 OR 30%), Method: PREINCUBATION) of the same molecule?
**A.** inactive; negative

**Q.** With `Fc1ccc2ncccc2c1F` as the molecule, how does the mutagenic call (Strain/Indicator: TA100, Metabolic Activation: RAT LIVER S-9, PHENOBARBITAL AND 5,6-BENZOFLAVONE, Method: PREINCUBATION) read?
**A.** active; positive

**Q.** Which results are given for `NNc1nnc(NN)c2ccccc12`?
**A.** mutagenic call [1]: active; positive; mutagenic call [2]: active; positive; mutagenic call [3]: inactive; negative; mutagenic call (Strain/Indicator: TA102, Metabolic Activation: NONE, Method: STANDARD PLATE): active; positive; mutagenic call (Strain/Indicator: TA104, Metabolic Activation: NONE, Method: STANDARD PLATE): inactive; negative; mutagenic call [4]: inactive; negative; mutagenic call (Strain/Indicator: TA1537, Metabolic Activation: NONE, Method: STANDARD PLATE): active; positive; mutagenic call (Strain/Indicator: TA1537, Metabolic Activation: RAT, LIVER, S-9, AROCLOR 1254, Method: STANDARD PLATE): active; positive; mutagenic call [5]: active; positive

**Q.** Which results are given for `CSCCC(NC(=O)COc1cc(Cl)c(Cl)cc1Cl)C(=O)O` (stereo unspecified)?
**A.** mutagenic call [1]: inactive; negative; mutagenic call (Strain/Indicator: TA97, Metabolic Activation: RAT, LIVER, S-9, AROCLOR 1254, Method: STANDARD PLATE): inactive; negative; mutagenic call (Strain/Indicator: TA98, Metabolic Activation: NONE, Method: STANDARD PLATE): inactive; negative; mutagenic call [2]: inactive; negative; mutagenic call (Strain/Indicator: TA100, Metabolic Activation: NONE, Method: STANDARD PLATE): inactive; negative; mutagenic call [3]: inactive; negative; mutagenic call (Strain/Indicator: TA1535, Metabolic Activation: NONE, Method: STANDARD PLATE): inactive; negative; mutagenic call [4]: inactive; negative; mutagenic call [5]: inactive; negative; mutagenic call (Strain/Indicator: TA1538, Metabolic Activation: RAT, LIVER, S-9, AROCLOR 1254, Method: STANDARD PLATE): inactive; negative

From PubChem BioAssay AID1259407 (Chemical Carcinogenesis Research Information System (CCRIS), 2018)
